What all share (format): biochemical
The target in one assay is T1, human JAK2 (Homo sapiens, UniProt O60674).
T1 construct: The kinase domain of human JAK2 was amplified from U937mRNA; His tag (from the pFastBac HTc vector) (N); made in house; host or cells: baculovirus; Sf9 for virus, High Five insect cells for production
The assay is described as follows: JAK2 kinase assay (ELISA or Alphascreen). Conditions: read-out: Jak2 inhibition of enzyme activity. The method in brief:
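His-tagged human JAK2 kinase domain from baculovirus-infected insect cells, ~1.5 μg per assay, in 50 mM HEPES pH 7.5, 10 mM MgCl2, 150 mM NaCl, with 10 μM–1 mM ATP and 5 μM biotinylated peptide substrate. Phosphotyrosine detected by PY20 ELISA or AlphaScreen.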
On the technique in general: An ELISA detects its analyte on a solid surface through an enzyme-linked reagent.

Another assay concerns the target T2, abl (Homo sapiens, UniProt P00519).
T2 sequence (P00519 242-493 limits assumed): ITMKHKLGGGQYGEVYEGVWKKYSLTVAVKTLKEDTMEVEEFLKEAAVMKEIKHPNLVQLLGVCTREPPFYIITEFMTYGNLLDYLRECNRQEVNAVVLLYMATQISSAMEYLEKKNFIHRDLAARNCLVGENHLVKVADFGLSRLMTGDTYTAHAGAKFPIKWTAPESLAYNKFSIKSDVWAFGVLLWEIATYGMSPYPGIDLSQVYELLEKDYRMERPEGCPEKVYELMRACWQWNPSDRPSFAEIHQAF
As to the kind of experiment: abl kinase assay (ELISA or Alphascreen). Conditions: read-out: abl inhibition of enzyme activity. In a few lines: (§1)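 Affinity-purified PTK domain (~1.5 μg) phosphorylated biotinylated peptide (5 μM final) in 50 mM HEPES pH 7.5, 10 mM MgCl2, 150 mM NaCl, 10 μM-1 mM ATP. Phosphotyrosine read by PY20 ELISA or Alphascreen.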

The next assay addresses fes (Homo sapiens, UniProt P07332). As to the kind of experiment: fes kinase assay (ELISA or Alphascreen). Conditions: read-out: fes inhibition of enzyme activity. In a few lines:
as §1

The next assay concerns the target T3, fms (Homo sapiens, UniProt P07333).
T3 sequence (P07333 582-910 limits assumed): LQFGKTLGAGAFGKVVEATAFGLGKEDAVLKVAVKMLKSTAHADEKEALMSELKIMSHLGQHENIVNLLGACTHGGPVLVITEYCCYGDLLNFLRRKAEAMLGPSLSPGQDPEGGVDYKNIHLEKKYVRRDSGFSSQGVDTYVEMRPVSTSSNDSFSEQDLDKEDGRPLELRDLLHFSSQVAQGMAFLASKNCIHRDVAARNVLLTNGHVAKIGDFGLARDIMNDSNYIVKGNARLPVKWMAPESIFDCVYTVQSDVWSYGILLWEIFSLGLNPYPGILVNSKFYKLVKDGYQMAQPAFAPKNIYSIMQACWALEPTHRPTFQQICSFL
The assay is described as follows: fms kinase assay (ELISA or Alphascreen). Conditions: read-out: fms inhibition of enzyme activity. The method in brief: as §1

A further assay addresses hck (Homo sapiens, UniProt P08631). The assay is described as follows: hck kinase assay (ELISA or Alphascreen). Conditions: read-out: hck inhibition of enzyme activity. On the procedure:
Kinase assays were performed in a 96 well capture-based ELISA assay or in 384 well Optiplates (Packard) using an Alphascreen Protein Tyrosine Kinase kit. In either case using approximately 1.5 μg of affinity purified PTK domain in the presence of 50 mM HEPES, pH 7.5, 10 mM MgCl2, 150 mM NaCl and 10 μM-1 mM ATP. The biotinylated substrate biotin-EGPWLEEEEEAYGWMDF-NH2 (SEQ ID NO:9) (final concentration 5 μM) was used as substrate. In the ELISA assay tyrosine phosphorylation was quantitated following transfer to an avidin coated ELISA plate using peroxidase-linked anti-phosphotyrosine antibody PY20. In the Alphascreen assay, Alphascreen phosphotyrosine acceptor beads followed by streptavidin donor beads were added under subdued light. The ELISA plates were read on a BMG Fluorostar, the Alphascreen plates were read on a Packard Fusion Alpha. Inhibitors were added to the assays fifteen minutes prior to the addition of ATP. Inhibitors were added in aqueous […] concentrations never exceeding 1%.

Another assay concerns the target T4, Zap70 (Homo sapiens, UniProt P43403).
T4 sequence (P43403 338-600 limits assumed): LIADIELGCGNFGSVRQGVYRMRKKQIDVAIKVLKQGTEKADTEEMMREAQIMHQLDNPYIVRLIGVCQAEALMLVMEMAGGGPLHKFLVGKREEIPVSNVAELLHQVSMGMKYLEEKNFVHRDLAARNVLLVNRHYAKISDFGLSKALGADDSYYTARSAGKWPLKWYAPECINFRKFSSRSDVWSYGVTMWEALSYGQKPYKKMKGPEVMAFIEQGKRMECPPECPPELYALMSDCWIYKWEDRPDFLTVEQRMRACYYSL
The assay is described as follows: Zap70 kinase assay (ELISA or Alphascreen). Conditions: read-out: Zap70 inhibition of enzyme activity. The method in brief:
as §1

A further assay concerns the target T5, human JAK3 (Homo sapiens, UniProt P52333).
T5 construct: The kinase domain of human JAK3 was amplified from U937mRNA; His tag (from the pFastBac HTb vector) (N); made in house; host or cells: baculovirus; Sf9 for virus, High Five insect cells for production
The assay is described as follows: JAK3 kinase assay (ELISA or Alphascreen). Conditions: read-out: Jak3 inhibition of enzyme activity. The method in brief: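 His-tagged human JAK3 kinase domain from High Five cells, ~1.5 μg per assay, in 50 mM HEPES pH 7.5, 10 mM MgCl2, 150 mM NaCl, 10 μM-1 mM ATP, 5 μM biotinylated peptide substrate. Phosphotyrosine by PY20 ELISA or Alphascreen.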

SMILES strings stand for the structures. A value given as a limit tells only on which side of the number the result lay.

A word on the inhibition: it is the drop in the measured response relative to a control, in per cent.

T5 sequence (P52333 822-1111 limits assumed): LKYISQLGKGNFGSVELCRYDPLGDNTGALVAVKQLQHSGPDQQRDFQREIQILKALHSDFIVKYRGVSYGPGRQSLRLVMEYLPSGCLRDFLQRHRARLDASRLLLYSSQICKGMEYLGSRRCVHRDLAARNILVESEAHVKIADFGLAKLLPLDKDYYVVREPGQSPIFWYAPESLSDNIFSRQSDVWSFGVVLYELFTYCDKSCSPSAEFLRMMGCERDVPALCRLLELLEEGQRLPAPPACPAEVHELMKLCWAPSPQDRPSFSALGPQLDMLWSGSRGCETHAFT
Chain of fes (P07332 561-822 limits assumed, species assumed): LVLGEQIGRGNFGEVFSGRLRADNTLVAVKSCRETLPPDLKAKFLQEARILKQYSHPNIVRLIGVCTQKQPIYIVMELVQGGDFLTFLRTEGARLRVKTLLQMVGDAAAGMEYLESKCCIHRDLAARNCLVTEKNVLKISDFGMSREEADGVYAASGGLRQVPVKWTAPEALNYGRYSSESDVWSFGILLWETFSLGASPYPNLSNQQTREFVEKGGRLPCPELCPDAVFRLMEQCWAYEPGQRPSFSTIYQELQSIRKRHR
T1 sequence (O60674 849-1124 limits assumed): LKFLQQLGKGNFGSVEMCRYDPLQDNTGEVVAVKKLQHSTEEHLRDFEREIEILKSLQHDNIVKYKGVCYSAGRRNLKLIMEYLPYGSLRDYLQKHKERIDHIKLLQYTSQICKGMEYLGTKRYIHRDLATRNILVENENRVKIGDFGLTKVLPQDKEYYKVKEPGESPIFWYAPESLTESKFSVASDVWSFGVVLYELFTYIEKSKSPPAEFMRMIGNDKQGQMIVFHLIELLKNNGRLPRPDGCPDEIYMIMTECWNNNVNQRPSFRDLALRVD
Chain of hck (P08631 262-515 limits assumed, species assumed): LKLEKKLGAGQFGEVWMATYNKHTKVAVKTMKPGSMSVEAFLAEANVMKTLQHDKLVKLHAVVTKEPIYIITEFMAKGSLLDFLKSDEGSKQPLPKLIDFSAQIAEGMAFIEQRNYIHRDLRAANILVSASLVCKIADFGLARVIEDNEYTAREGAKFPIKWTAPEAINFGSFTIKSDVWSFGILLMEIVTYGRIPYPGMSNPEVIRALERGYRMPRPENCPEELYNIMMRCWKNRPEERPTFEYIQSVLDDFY

`CC(C)NC(=O)c1cncc(-c2ccc(O)cc2)c1`: the inhibition at 10 µM on human JAK2 was less than 50%; on abl, less than 50%; on fes, less than 50%; on fms, less than 50%; at hck, no less than 50%; on Zap70 it was less than 50%.

Take `Cc1cc(F)ccc1NC(=O)c1cncc(-c2cccnc2)c1`: the inhibition at 10 µM at abl, on fes, on fms, on hck and at Zap70 was less than 50% each time.

Consider `Cc1ccc(CNC(=O)c2cncc(-c3ccc(F)cc3)c2)cc1`, for which the inhibition at 10 µM at human JAK2, at abl, on fes, on fms, at hck and on Zap70 was less than 50% in each case.

In the case of `Cc1cc(F)ccc1NC(=O)c1cncc(-c2ccncc2)c1`, the inhibition at 10 µM on abl, on fes, at fms, on hck and on Zap70 was less than 50% throughout.

Consider `CN(Cc1ccccc1)C(=O)c1cncc(-c2ccc(F)cc2)c1`, for which the inhibition at 10 µM on human JAK2, on abl, at fes, at fms, at hck and on Zap70 was less than 50% in each case.

In the case of `O=C(NCc1ccc(F)cc1)c1cncc(-c2cccnc2)c1`, the inhibition at 10 µM at abl, at fes, at fms, at hck and on Zap70 was less than 50% in each case.

For the compound `COc1cc(-c2cncc(C(=O)Nc3ccccc3)c2)c(Cl)c(OC)c1OC`, the inhibition at 10 µM on human JAK2, on human JAK3, at abl, on fes, on hck and on Zap70 was less than 50% in each case.

In the case of `CC(C)C(CO)NC(=O)c1cncc(-c2ccc(F)cc2)c1` (stereo not drawn), the inhibition at 10 µM on human JAK2, on abl, at fes, at fms, at hck and at Zap70 was less than 50% in each case.

With `COc1cccc(-c2cncc(C(=O)N[C@@H](C)c3ccccc3)c2)c1`, the inhibition at 10 µM at human JAK2, at human JAK3, at abl, at fes, at hck and at Zap70 was less than 50% in each case.

On to `COc1cc(NC(=O)c2cncc(-c3cccs3)c2)cc(OC)c1OC`, for which the inhibition at 10 µM at human JAK2, at abl, at fes, on fms, at hck and on Zap70 was less than 50% throughout.

In the case of `CC(NC(=O)c1cncc(-c2ccc(O)cc2)c1)c1ccc(F)cc1` (stereo not drawn), the inhibition at 10 µM at human JAK2, on human JAK3, on abl, on fes, at hck and on Zap70 was less than 50% in each case.

In the case of `COc1ccc(CNC(=O)c2cncc(-c3cccnc3)c2)cc1`, the inhibition at 10 µM on human JAK2, on human JAK3, at abl, at fes, on hck and on Zap70 was less than 50% each time.

On to `COc1cc(-c2cncc(C(=O)NCCO)c2)ccc1O`, for which the inhibition at 10 µM at human JAK2, at human JAK3, at abl, on fes, at hck and at Zap70 was less than 50% throughout.

In the case of `Cc1cc(F)ccc1NC(=O)c1cncc(-c2ccc(F)cc2)c1`, the inhibition at 10 µM at human JAK2, at human JAK3, at abl, at fes, on hck and on Zap70 was less than 50% throughout.

Take `COc1cc(-c2cncc(C(=O)NCCO)c2)cc(OC)c1OC`: the inhibition at 10 µM on abl was less than 50%; at fes it was less than 50%; at fms, less than 50%; at hck, less than 50%; on Zap70, no less than 50%.

In the case of `Cc1ccc(CNC(=O)c2cncc(-c3ccc(O)cc3)c2)cc1`, the inhibition at 10 µM at human JAK2, at human JAK3, on abl, on fes, at hck and at Zap70 was less than 50% in each case.

Take `O=C(NCCc1ccccc1)c1cncc(-c2cccs2)c1`: the inhibition at 10 µM on human JAK2, at human JAK3, on abl, on fes, at hck and on Zap70 was less than 50% each time.

As to `Cc1ccccc1NC(=O)c1cncc(-c2ccc3c(c2)OCO3)c1`, the inhibition at 10 µM was less than 50% at human JAK2; less than 50% at human JAK3; less than 50% on abl; less than 50% on fes; no less than 50% at hck; less than 50% at Zap70.

On to `COc1ccc(NC(=O)c2cncc(-c3cc(OC)c(OC)c(OC)c3)c2)c(OC)c1`, for which the inhibition at 10 µM on abl, on fes, at fms, on hck and on Zap70 was less than 50% each time.

For `O=C(NCc1ccc(F)cc1)c1cncc(-c2ccncc2)c1`, the inhibition at 10 µM is less than 50% on abl; no less than 50% at fes; less than 50% on fms; less than 50% at hck; less than 50% on Zap70.

`C[C@@H](NC(=O)c1cncc(-c2cccs2)c1)c1ccccc1`: the inhibition at 10 µM at human JAK2, on human JAK3, at abl, at fes, on hck and at Zap70 was less than 50% throughout.

For the origin of these results see US8030336B2, “Nicotinamide-based kinase inhibitors” (YM Biosciences Australia Pty Ltd, priority 2002, dated 2011).
